Assays:
[1] = tested on: EMT markers and MMPs in CaSki cells; assay: Western blot for EMT markers and MMPs, CaSki; format: cell-based, human; settings: 24 hours
Experimental: In a further example, cell lysates and western blot analysis was conducted for EMT markers and MMPs. […] In this example, about 70% of confluent SiHa and CaSki were treated with ORM-Br ([…]) for 24 hours. Cell lysates were prepared, and western blot analysis were conducted for EMT markers and MMPs analysis. The effect of ORM-Br on protein levels of cell-cycle regulatory proteins (cyclin E1 and p27) in both CaSki and SiHa cell lines are shown.
The effect of Br-ORM on protein expression in cervical cancer cells were determined by Western blot analysis by using specific antibodies.
Epithelial mesenchymal transition (EMT) is the basic characteristic of cancer cells in which epithelial cells undergo morphologic and molecular changes that transform the cells to mesenchymal, highly metastatic (invasive and motile), and drug-resistant phenotypes. Thus, targeting EMT may reduce the invasive phenotypes of a cancer cell and have significant advantage to overcome drug resistance. It has been reported that β-catenin is involved in invasion and metastasis via inducing EMT in various tumor cells. The effect of Br-ORM treatment on various EMT markers in cervical cancer cells was evaluated. […] The effect of Br-ORM on expression of EMT markers in cervical cancer cells compared to untreated group by use of qPCR analysis was determined. […] Expression of E-cadherin in cervical cancer cells treated with Br-ORM (10 μM) for 18 hours was also determined by immunofluorescence and confocal microscopy. Images were captured under 60× magnification and representative images are presented (FIG. 14G).
FIG. 14. Br-ORM decreases migration, invasion and attenuates EMT in cervical cancer cells. Effect of Br-ORM on cell migration of cervical cancer cells as determined by agarose bead (FIG. 14A), scratch wound healing (FIG. 14B), and Boyden chamber assay (FIG. 14C). AB denotes agarose bead while MC denotes migratory cells. Arrows indicate the distance of cervical cancer (CaSki and SiHa) cells migration in control and Br-ORM treated groups (FIG. 14A(i)-(ii)). […] Closure of wound was determined and photographed using phase contrast microscopy. […] Bar graph represent the quantification of migrated CaSki cells of control and Br-ORM treated groups (FIG. 14C(ii)). […] Effect of Br-ORM treatment on invasion of CaSki cells as determined by a commercially available kit (BD Biosciences) as described in materials and methods. In brief, 24 hours post-treatment of Br-ORM, invaded cells were fixed, stained and counted. […] Bar graph represent the quantification of invaded CaSki cells of control and Br-ORM treated groups (FIG. 14D(ii)). […] Effect of Br-ORM on E-cadherin expression in cervical cancer cells as determined by confocal microscopy in control and Br-ORM treated cells after 18 hours.

[2] = tested on: HPV16 E6 and E7 transcripts in CaSki cells; assay: qPCR of HPV E6 and HPV E7 transcripts, CaSki; format: cell-based, human; settings: 18 hours
Experimental: RNA from cervical cancer cells was isolated using Qiagen kit and quantified using NanoDrop instrument 2000 (Thermo Scientific, Waltham, MA, USA). To analyze the expression of miR-200a in control and Br-ORM treated cells, 100 ng total RNA was reverse transcribed into cDNA using specific primers designed for miRNA analysis (Applied Biosystems, Foster City, CA, USA). The expression of this miRNAs was determined by qRT-PCR using the Taqman PCR master mixture and specific primers designed for detection of mature miRNAs (Applied Biosystems). The expression of miRNA was normalized with the expression of endogenous control, RNU6B.
HPV infections are associated with a majority of cervical cancer cases. The effect of Br-ORM on the expression of HPV E6 and HPV E7 oncogenes in CaSki and SiHa cells was investigated. […] Br-ORM repressed both transcription and translation of E6 and E7 oncogene in cervical cancer cells.
FIG. 16. Effect of Br-ORM on HPV oncoproteins and tumor suppressor miR-200 in cervical cancer cells. […] Increase expression of tumor suppressor miR200a in cervical cancer cells treated with BR-ORM for 24 hours in comparison to non-treated controls was determined through real time PCR (FIG. 16A(v)-(vii)). […]

COc1ccc2c(c1)OC(C)(C)C(c1ccc(Br)cc1)C2c1ccc(OCCN2CCCC2)cc1 (centres unmarked) [ORM-Br]
EMT associated markers (N-cadherin, vimentin and snail) expression [1]: inhibits the EMT associated markers | expression of E-cadherin [1]: induced the expression of E-cadherin | expression of MMP2 and MMP9 [1]: inhibited the expression of MMP2 and MMP9 | EMT associated markers (N-cadherin, vimentin and snail) expression ([1]; listed as Br-ORM): marked inhibition | HPV16 E6 and E7 transcripts [2]: significant downregulation

Source: patent publication US20240208950A1, “COMPOSITIONS AND METHODS FOR TREATMENT OF CERVICAL AND OVARIAN CANCER” (SOUTH DAKOTA BOARD OF REGENTS, priority 2021, published 2024)
